These are literature values, as cited in patent publication US20110052727A1, “Anti Influenza Nutritional Supplements” (priority 2009, published 2011).

Data set [1] has as its system influenza A/Kumamoto/1/65 virus.
The test system of the next data set is MDCD cells. The settings on record: 100 μg/ml.
Data set [2] relates to MDCK cells. As to conditions: up to 1 mM.
Data set [3] has as its system influenza virus A/Puerto Rico/8/34 (H1N1).
Data set [4] relates to influenza virus A/Udorn/317/72(H3N2). As to conditions: quercetin orally 1 mg/day for 5 consecutive days.
The test system of another data set is influenza A Bangkok 1/79. As to conditions: Se- vs Se+ conditions; 24 hours post infection.
Data set [5] deals with influenza A/Bangkok/1/79 virus. The settings on record: selenium adequate diet, vs deficient diet still severe at day 21.
The subject of data set [6] is influenza A/Chile/1/83 (H1N1) virus. As to conditions: MDCK cells; read-out: 50% effective inhibition concentration (EC50).
Data set [7] shares this test system. As to conditions: 500 μM.
The next data set deals with neuraminidase. The settings on record: read-out: concentration for reduction of half enzymatic activity (neuraminidase).
The subject of data set [8] is MDCK cells. As to conditions: read-out: dose that reduced cell viability about 50% (CC50).
Data set [9] deals with influenza A/Chile/1/83 (H1N1) virus. The settings on record: compared with ECG and EGC.
For data set [10], the system named is MDCK cells.
The test system of data set [11] is Influenza A Virus (Strain A/Yamagata/120/86 H1N1). As to conditions: 1.5 μM; 60 min treatment.

Read-outs that look alike come from different tables or passages of the source.

As to `O=C/C=C/c1ccccc1` [CA, trans-cinnamaldehyde], in the data set on influenza A/PR/8 virus (40 μM, treatment given 3 hours post infection), the “virus yield of control (maximum inhibitory effect)” value was 29.7%. Moreover, the virus yield result with influenza A/PR/8 virus (200 μM) is recorded as “undetectable level”.

For `CC1(C)[C@@H](O[C@H]2O[C@H](C(=O)O)[C@@H](O)[C@H](O)[C@H]2O[C@@H]2O[C@H](C(=O)O)[C@@H](O)[C@H](O)[C@H]2O)CC[C@]2(C)[C@H]3C(=O)C=C4[C@@H]5C[C@@](C)(C(=O)O)CC[C@]5(C)CC[C@@]4(C)[C@]3(C)CC[C@@H]12` [Glycyrrhizin], the survival entry in data set [1] (10 mg/kg 1 day before and 1 and 4 days post infection, 10-50% lethal doses, saline controls no survivors) is recorded as “survived over the 21-day experimental period”. The “virus titers in the lungs, times lower than control mice” value in data set [1] (2 to 6 days after the infection) is “more than 10 times”. Moreover, in data set [1] (day 6), the “viral activity in the lungs” value is listed as “not detected”.

`CCOC(=O)C1=C[C@@H](OC(CC)CC)[C@H](NC(C)=O)[C@@H](N)C1` [Oseltamivir, reference compound]: the antiviral activity entry is listed as “about 58%” with influenza A/WS/33 virus (100 μg/ml, 2 days incubation) and “less than 49%” with influenza A/WS/33 virus (concentrations of less than 10 μg/ml). Moreover, in the data set on MDCD cells, the cell viability result is “about 100%”.

As for `C[C@@H]1O[C@@H](Oc2c(-c3ccc(O)c(O)c3)oc3cc(O)cc(O)c3c2=O)[C@H](O)[C@H](O)[C@H]1O` [Q3R, quercetin 3-rhamnoside], the antiviral activity entry with influenza A/WS/33 virus (10 μg/ml, 2 days incubation) is “about 66%”; in the data set with influenza A/WS/33 virus (100 μg/ml, 2 days incubation), “about 86%”. Besides, the cell viability entry with MDCD cells is “about 100%”.

Regarding `NC(=O)c1c[se]c([C@@H]2O[C@H](CO)[C@@H](O)[C@H]2O)n1` [Selenazofurin, selenazofurin], the “cytotoxic effect on cells” value with MDCK cells [2] was “no cytotoxic effect”.

As to `O=c1c(O)c(-c2ccc(O)c(O)c2)oc2cc(O)cc(O)c12` [quercetin, Quercetin], in [3] (quercetin 12.5 mg/kg via gavage for 7 days before viral challenge, 21 days monitoring), the “decrease of mortality in the control group (infected and did not exercise)” value is 22%. The “susceptibility to infection (morbidity, mortality, symptom severity on days 5-7) associated with stressful exercise” value in [3] (quercetin 12.5 mg/kg via gavage for 7 days, P<0.05) is listed as “offset the increase in susceptibility to infection”. Further, in data set [4], the “epithelial damage and leukocytic influx” value was “significantly reduced”; the “superoxide radicals production levels” value is listed as “significantly reduced their levels”. Moreover, the “lipid peroxidation (LPO) products level after supplementation (raised by 85% in influenza group vs normal control)” value in data set [4] (P<0.05) is recorded as 43%.

As for `[Se]` [selenium, Selenium], the influenza-induced apoptosis result with influenza A Bangkok 1/79 is on record as “Se deficiency enhanced influenza-induced apoptosis”. Also, the lung pathology result in [5] is on record as “began to diminish after day 6”.

In the case of (−)-epigallocatechin gallate [EGCG], in [6], the EC50 is 22 to 28 µM. In addition, the “inhibition of viral RNA synthesis” value in data set [7] is “about 80%”. Further, the IC50 at neuraminidase was roughly 350 µM. Further, the CC50 in the data set on MDCK cells [8] is 275 ± 22.8 µM. Also, in data set [9], the hemagglutination inhibition activity result is given as “most effective”. For the same molecule, in the data set with MDCK cells [10], the “toxicity relative to derivatives” value is reported as “less toxic than most of its derivatives”. Besides, the “inhibition of plaque forming activity” value in data set [11] is roughly 100%.
